“And” between values parts separate entries of the source, which are not always exact repeats. Identical values can stand only once.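 Test compounds were applied to cells in 96-well plates for 48 hours at 5 doses. At the GI50, growth is halved. Definition used: TGI = concentration required for complete inhibition of growth.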
Tests used:
Assay in all cases: inhibition of tumour cell growth, NCI panel, 48 h
[1] = test system: SN12C renal
[2] = test system: ACHN renal
[3] = test system: NCI-H23 lung
[4] = test system: HCT-15 colon
[5] = test system: RPMI-8226 leukemia
[6] = test system: MOLT-4 leukemia
[7] = test system: SK-MEL-2 melanoma
[8] = test system: NCI/ADR-RES ovarian
[9] = test system: KM12 colon
[10] = test system: OVCAR-3 ovarian

Compound | GI50 [1] | TGI [1] | GI50 [2] | TGI [2] | GI50 [3] | TGI [3] | GI50 [4] | TGI [4] | GI50 [5] | TGI [5] | GI50 [6] | TGI [6] | GI50 [7] | TGI [7] | GI50 [8] | TGI [8] | GI50 [9] | TGI [9] | GI50 [10] | TGI [10]
NC(=O)c1ccc2nc(-c3ccc(Oc4ccc(Cl)cc4)cc3)[nH]c2c1 | 39.4 µM and 14.6 µM | 75 µM and 30.2 µM | 13.9 µM and 14.4 µM | 75 µM and 30.2 µM | 67.5 µM and 13.5 µM | 75 µM and 32.7 µM | 23.6 µM and 12.6 µM | 75 µM and 31 µM | > 75 µM and 10.9 µM | > 75 µM and 37.6 µM | 28.6 µM and 11.5 µM | 75 µM and 33.3 µM | 18.3 µM and 21.2 µM | 75 µM and 40.2 µM | > 75 µM and 13.3 µM | > 75 µM and 32.9 µM | 65 µM and 13.9 µM | 75 µM and 31.3 µM | 20.8 µM and 14.4 µM | 75 µM and 34.8 µM
COc1ccc(-c2nc3ccccn3c2/C=C/C(=O)c2cc(OC)c(OC)c(OC)c2)cc1 | 11.4 µM | > 100 µM | 3.26 µM | > 100 µM | 3.41 µM | 94.1 µM | 4.85 µM | > 100 µM | 7.5 µM | > 100 µM | 32.9 µM | > 100 µM | 4.95 µM | > 100 µM | 3.36 µM | 29.4 µM | 4.99 µM | > 100 µM | 2.88 µM | 9.67 µM
COc1cc(O)c(C(=O)/C=C/c2ccc(O)cc2)c(O)c1[C@@H]1C[C@H](CCc2ccc(O)cc2)O[C@H](c2ccc(O)cc2)C1 | 4.36 µM | 20.3 µM | 3.31 µM | 10.9 µM | 3.14 µM | 9.3 µM | 3.43 µM | 11.9 µM | 2.18 µM | 5 µM | 1.95 µM | 5.43 µM | 3.62 µM | 17.5 µM | 3.72 µM | 14.4 µM | 2.51 µM | 6.64 µM | 4.18 µM | 21 µM
Fc1ccc(Nc2nc3nonc3nc2Nc2ccc(F)cc2)cc1 | 0.301 µM | 3.01 µM | 0.399 µM | 7.09 µM | 0.264 µM | 0.852 µM | 0.384 µM | 11.7 µM | 0.207 µM | 0.697 µM | 0.356 µM | 1.65 µM | 0.285 µM | 0.807 µM | 0.329 µM | 2.76 µM | 0.395 µM | 10.6 µM | 0.371 µM | 11 µM
CN1c2ccccc2C(C)(C)C12C=Cc1cc(O)ccc1O2 (configuration not stated) | 3.19 µM | 17.2 µM | 7.2 µM | 22.9 µM | 2.97 µM | 13.8 µM | 3.41 µM | 14 µM | 1.71 µM | 4.91 µM | 4.5 µM | > 100 µM | 3.05 µM | 11.5 µM | 1.96 µM | 7.14 µM | 2.31 µM | 6.2 µM | 2.16 µM | 5.23 µM
COc1ccc(OC)c(/C=C(/C)[N+](=O)[O-])c1 | 2.17 µM | 5.02 µM | 1.77 µM | 3.29 µM | 1.83 µM | 4.52 µM | 1.74 µM | 3.68 µM | 0.603 µM | 3.64 µM | 3.32 µM | > 100 µM | 2.16 µM | 4.41 µM | 3.22 µM | 11.5 µM | 2.28 µM | 5.94 µM | 1.81 µM | 3.27 µM
O=[N+]([O-])c1c(Br)sc(Br)c1[N+](=O)[O-] | 3.12 µM | 10.9 µM | 1.64 µM | 3.19 µM | 11.3 µM | 28.9 µM | 1.59 µM | 4.48 µM | 1.91 µM | 5.54 µM | 1.01 µM | 5.35 µM | 2.79 µM | 10.3 µM | 3.3 µM | 23.8 µM | 10.1 µM | 22 µM | 1.71 µM | 3.2 µM
COc1cc2c(cc1C)NC(=O)/C2=C\c1cccc(Oc2ccccc2)c1 | 13.2 µM | 25.9 µM | 17.3 µM | 31 µM | 13.6 µM | 28.3 µM | 13.3 µM | 26.2 µM | 5.02 µM | 24 µM | 6.23 µM | 21.8 µM | 20.1 µM | 47.1 µM | 12.9 µM | 32.4 µM | 14.3 µM | 34.6 µM | 13.2 µM | 26.8 µM
CC1(C)[C@@H](O[C@@H]2OC[C@@H](O[C@@H]3O[C@H](CO)[C@@H](O)[C@H](O)[C@H]3O[C@@H]3OC[C@@H](O)[C@H](O)[C@H]3O)[C@H](O)[C@H]2O[C@@H]2O[C@H](CO)[C@@H](O)[C@H](O)[C@H]2O)CC[C@]2(C)[C@H]3CC[C@]45OC[C@@]6(CC[C@](C)(C=O)C[C@H]64)[C@H](O)C[C@@]5(C)[C@]3(C)CC[C@@H]12 | 0.847 µM | 1.79 µM | 0.824 µM | 1.54 µM | 0.984 µM | 2.12 µM | 1.62 µM | 4.37 µM | 1.12 µM | 2.56 µM | 0.962 µM | 2.31 µM | 0.886 µM | 1.74 µM | 1.24 µM | 3.43 µM | 1.21 µM | 3.17 µM | 1.01 µM | 2.06 µM
Oc1[nH]c2ccc(Cl)cc2c1/C=c1/ccc2c(c1)N=C(c1ccc(F)cc1)N=2 | 2.71 µM | 10.2 µM | 3.19 µM | 11.9 µM | 1.65 µM | 3.59 µM | 2.04 µM | 4.47 µM | 2.91 µM | 12.2 µM | 2.52 µM | 7.1 µM | 2.87 µM | 6.81 µM | 1.87 µM | 3.58 µM | 2.54 µM | 6.53 µM | 1.92 µM | 3.58 µM
Nc1nc(-c2ccccc2)nc(N)c1N=O | 4.51 µM | 18.1 µM | 4 µM | 14.1 µM | 14.6 µM | 41.9 µM | 3.03 µM | 11.1 µM | 17.9 µM | 78.7 µM | 17.4 µM | > 100 µM | 19.5 µM | 41.6 µM | 6.44 µM | 59.6 µM | 4.58 µM | 16.9 µM | 4.17 µM | 14 µM
COc1ccc2c(c1)C(=O)c1c-2c(Nc2ccc(Cl)cc2)nc2ccccc12 | 17.7 µM | 57.1 µM | 4.23 µM | 16.3 µM | 13.6 µM | 50.3 µM | 42.3 µM | > 100 µM | 24.5 µM | > 100 µM | 27.5 µM | > 100 µM | 17 µM | 56.1 µM | 16.6 µM | > 100 µM | 50 µM | > 100 µM | 33.6 µM | > 100 µM
COc1ccc(Cn2cc3c(c2-c2ccc(OC)cc2)CCc2cnoc2-3)cc1 | 0.795 µM | > 100 µM | 0.892 µM | > 100 µM | 0.519 µM | > 100 µM | 0.506 µM | > 100 µM | 0.336 µM | – | 0.504 µM | > 35 µM | – | – | 0.27 µM | 4.08 µM | 0.376 µM | 2.35 µM | 0.259 µM | 0.62 µM
COc1cc2c3c(n(CCCI)c(=O)c2cc1OC)-c1cc2c(cc1C3=O)OCO2 | – | – | 2.14 µM | 8.34 µM | 7.24 µM | > 100 µM | 0.475 µM | > 100 µM | 3.76 µM | > 100 µM | 0.126 µM | > 100 µM | > 100 µM | > 100 µM | 27.3 µM | > 100 µM | 7.4 µM | > 100 µM | 11.2 µM | > 100 µM
CCC1CCc2nc3sc(C(=O)Nc4cccc(F)c4)c(N)c3cc2C1 (configuration not stated) | > 100 µM | > 100 µM | > 100 µM | > 100 µM | > 100 µM | > 100 µM | 0.428 µM | > 100 µM | > 100 µM | > 100 µM | 39.8 µM | > 100 µM | > 100 µM | > 100 µM | > 100 µM | > 100 µM | – | – | 0.757 µM | > 100 µM
COc1cc(OC)c(/C=C/c2cnc3ccccc3n2)c(OC)c1 | – | > 10 µM | – | > 10 µM | – | > 10 µM | – | > 10 µM | – | > 10 µM | – | – | – | > 10 µM | – | > 10 µM | – | > 10 µM | – | > 10 µM
N#Cc1c(N)nc(N2CCOCC2)c(C#N)c1-c1cccnc1 | 97.2 µM | > 100 µM | 48.7 µM | > 100 µM | – | – | > 100 µM | > 100 µM | 45.5 µM | > 100 µM | > 100 µM | > 100 µM | > 100 µM | > 100 µM | 81.7 µM | > 100 µM | > 100 µM | > 100 µM | 26.6 µM | 89.7 µM
O=C1c2ccccc2C(=O)c2c1ccc(C1C(=O)c3ccccc3C1=O)c2-c1c(C2C(=O)c3ccccc3C2=O)ccc2c1C(=O)c1ccccc1C2=O | – | > 100 µM | – | > 100 µM | – | – | – | > 100 µM | – | > 100 µM | – | 82.5 µM | – | > 100 µM | – | > 100 µM | – | > 100 µM | – | > 100 µM
COc1ccc(Nc2c3ccccc3nc3ccccc23)cc1 | 2.18 µM | 13 µM | 1.28 µM | 5.68 µM | – | – | 1.08 µM | 15.5 µM | 1.26 µM | 4.66 µM | 0.59 µM | 3.39 µM | 1.29 µM | 11.3 µM | 0.545 µM | 15.5 µM | 1.33 µM | 15 µM | 1.43 µM | 5.78 µM

Reference: PubChem BioAssay (NCI)
